These results are taken from patent US4810699A, “Substituted 1,3,4,9-tetrahydropyrano[3,4,-b]indole-1-acetic acids, pharmaceutical compositions containing them, and methods for treating inflammatory conditions and for analgesic purposes using them” (American Home Products Corporation, priority 1987, dated 1989).

In experiment [1] the test system is Adjuvant Edema. The experiment is described as follows: Preventative Adjuvant Edema. It counts as in vivo, Male Sprague Dawley rats. The following applies: rat; for Preventative Adjuvant Edema, percent inhibition: p.o.; for ED50: po, days 0, 1 and 2. The protocol: This test is a primary screen for anti-inflammatory drugs.
Male Sprague Dawley rats (180-200 g) are used. The animals have free access to water but food is withdrawn 18 hours before testing.
Drug Preparations and Administration:
Freund's complete adjuvant is prepared by suspending 5 mg of killed and dried Mycobacterium butyricum (Difco) in 1 mL mineral oil. The test compound are dissolved, or suspended in 0.5% Tween 80 in distilled water according to their solubility. For primary screening all drugs are administered by gastric lavage at the arbitrary dosage of 25 mg/kg, p.o. in a volume of 0.5 mL/100 g body weight to groups of 10 animals.
The method is essentially that described by Wax et al, J. Pharmacol. Exp. Ther., 192, 166-171 (1975). Groups of rats are injected intradermally in the left hind paw with 0.1 mL of Freund's complete adjuvant. The test compound or vehicle is administered immediately before the adjuvant, 24 hours and 48 hours after the adjuvant (days 0, 1 and 2). The injected hind paw volume is measured before the injection of adjuvant and 24 hrs. after the last drug administration (day 3) by means of a plethysmometer (Buxco Electronics Inc.). The difference between the hind paw volume on day 0 and day 3 represents the edema volume. Etodolac (25 mg/kg, p.o.) is included as a positive control.
The mean edema volume (expressed as mL±SEM) is calculated for each group and the percentage protection conferred by the drug is calculated: [formula] where c is the mean edema volume for the vehicle-treated (0.5% Tween 80 in distilled water) controls and t is the mean edema volume for the drug treated group.

Experiment [2] relates to Phenylbenzoquinone-induced Writhing. The experiment is described as follows: Drug Effects on Phenylbenzoquinone-induced Writhing in Mice. It counts as in vivo, Male Swiss albino mice. The following applies: mouse, p.o., 60 min before PBQ i.p.; for ED50: po, read-out: Phenylquinone Writhing in Mice ED50; for Phenylquinone Writhing in Mice, percent inhibition: dose 10 mg/kg. On the procedure:
A further test used to determine the utility of the compounds of the present invention is designated: Drug Effects on Phenylbenzoquinone-induced Writhing in Mice
The objective of this test is to determine the ability of test drugs to inhibit the nociceptive (pain) response of mice injected with a chemical irritant. This test is a primary screen for both peripheral and centrally acting analgesic drugs.
Male Swiss albino mice (15-25 g). The animals are fasted for 18 hours prior to use but have free access to water.
Drug Preparation and Administration:
Drugs are dissolved or suspended according to their solubility in 0.5% Tween 80 in distilled water. They are administered by gastric gavage in a volume of 5 mL/kg. For primary screening all drugs are administered at the arbitrary dosage of 25 mg/kg, p.o. to a group of 10 mice.
A modification of the method of Siegmund et al, Proc. Soc. Exp. Biol. Med., 95, 729-731 (1957) is used. Groups of 5 mice are dosed with the test compound or vehicle control. Sixty minutes later the animals are injected i.p. with 0.3 mL/20 g body weight of a 0.02% solution of phenylbenzoquinone (PBQ; 2-phenyl-1,4-benzoquinone) and placed in individual observation boxes. The number of writhing or abdominal squirming movements made by each mouse during the following 15 min. period is counted. The experiment is repeated with another group of 5 mice and the mean number of writhes per mouse for a group of 10 mice is calculated.
Drug treated and vehicle-treated control groups are compared and the percentage protection conferred by the drug is calculated: [formula] where c=mean number of writhes in the control group
t=mean number of writhes in the test drug group

On to `CCC1(CC(=O)O)OCCc2c1[nH]c1c(OCC(F)(F)F)c(Cl)ccc21` (stereo not drawn) [Example 2, 7-Chloro-1-ethyl-1,3,4,9-tetrahydro-8-(2,2,2-trifluoroethoxy)pyrano[3,4-b]indole-1-acetic Acid], for which the “Preventative Adjuvant Edema, percent inhibition” value in experiment [1] (dose 3 mg/kg) amounted to 50%. Moreover, the 50% effective dose (ED50) in experiment [2] was determined as 77 mg/kg.
As for `CCC1(CC(=O)O)OCCc2c1[nH]c1c(OCC(F)(F)F)ccc(F)c21` (stereo not drawn) [Example 3, 1-ethyl-5-fluoro-1,3,4,9-tetrahydro-8-(2,2,2-trifluoroethoxy)-pyrano[3,4-b]indole-1-acetic acid], in experiment [1] (dose 25 mg/kg), the “Preventative Adjuvant Edema, percent inhibition” value amounted to 70%. The “Phenylquinone Writhing in Mice, percent inhibition” value in experiment [2] is recorded as 18%.
For `CCC1(CC(=O)O)OCCc2c1[nH]c1c(OC(C)C(F)(F)F)c(Cl)ccc21` (stereo not drawn) [Example 5, 7-chloro-1-ethyl-1,3,4,9-tetrahydro-8-(1-methyl-2,2,2-trifluoroethoxy)-pyrano[3,4-b]indole-1-acetic acid] the same measures were 41% and 31%.
Consider `CCC1(CC(=O)O)OCCc2c1[nH]c1c(OCC(F)(F)F)c(F)ccc21` (stereo not drawn) [Example 4, 7-fluoro-1-ethyl-1,3,4,9-tetrahydro-8-(2,2,2-trifluoroethoxy)-pyrano[3,4-b]indole-1-acetic acid], for which the “Preventative Adjuvant Edema, percent inhibition” value in experiment [1] (dose 10 mg/kg) was found to be 83%. The “Phenylquinone Writhing in Mice, percent inhibition” value in experiment [2] is given as 0%.
On to `CCC1(CC(=O)O)OCCc2c1[nH]c1c(OCC(F)(F)F)ccc(C)c21` (stereo not drawn) [Example 1, 1-Ethyl-1,3,4,9-tetrahydro-5-methyl-8-(2,2,2-trifluoroethoxy)pyrano[3,4-b]indole-1-acetic Acid], for which the ED50 in experiment [1] turned out to be 16.4 mg/kg. Besides, the “Phenylquinone Writhing in Mice, percent inhibition” value in experiment [2] is on record as 34%.
Regarding `C=CCOc1cccc2c3c([nH]c12)C(CC)(CC(=O)O)OCC3` (stereo not drawn) [Example 7, 1-ethyl-1,3,4,9-tetrahydro-8-[(2-propenyl)oxy]-pyrano[3,4-b]indole-1-aceticacid], the “Preventative Adjuvant Edema, percent inhibition” value in experiment [1] (dose 25 mg/kg) amounted to 41%. In addition, in experiment [2], the “Phenylquinone Writhing in Mice, percent inhibition” value is given as 18%.
Consider `C#CCOc1cccc2c3c([nH]c12)C(CC)(CC(=O)O)OCC3` (stereo not drawn) [Example 8, 1-Ethyl-1,3,4,9-tetrahydro-8-[(2-propynyl)oxy]-pyrano[3,4-b]indole-1-aceticAcid], for which the “Preventative Adjuvant Edema, percent inhibition” value in experiment [1] (dose 25 mg/kg) is given as 34%.
For `CCC1(CC(=O)O)OCCc2c1[nH]c1c(OCC(F)(F)F)cccc21` (stereo not drawn) [Example 6, 1-Ethyl-1,3,4,9-tetrahydro-8-(2,2,2-trifluoroethoxy)pyrano[3,4-b]indole-1-acetic Acid], the ED50 in experiment [1] is 4.3 mg/kg; in experiment [2], more than 200 mg/kg.
